Legend:
Pseudomonas aeruginosa = test: preservation efficacy test (PET), European Pharmacopoeia 5.1.3; format: cell-based; details: PA, use concentration in label; for count at 2 days: 2 days after inoculation; for count at 7 days: 7 days after inoculation; for count at 14 days: 14 days after inoculation; for count at 28 days: 28 days after inoculation
Staphylococcus aureus = test: as above; format: cell-based; details: for count at 7 days / count at 14 days / count at 28 days / count at 2 days: SA, use concentration in label; for count at 14 days / number of microorganisms, 14 days: 14 days after inoculation; for count at 28 days / number of microorganisms, 28 days: 28 days after inoculation; for count at 2 days: 2 days after inoculation
Escherichia coli = test: as above; format: cell-based; details: for count at 2 days / count at 7 days / count at 14 days / count at 28 days: EC, use concentration in label
Candida albicans = test: as above; format: cell-based; details: for count at 2 days / count at 7 days / count at 14 days / count at 28 days: CA, use concentration in label; for count at 2 days: 2 days after inoculation; for count at 7 days: 7 days after inoculation; for count at 14 days: 14 days after inoculation; for count at 28 days / number of microorganisms, 28 days: 28 days after inoculation; for number of microorganisms, 28 days: Candida albicans (CA)
Aspergillus brasiliensis = test: as above; format: cell-based; details: for count at 2 days / count at 7 days / count at 14 days / count at 28 days: AB, use concentration in label; for count at 2 days: 2 days after inoculation; for count at 7 days: 7 days after inoculation; for count at 14 days / number of microorganisms, 14 days: 14 days after inoculation
[1] = maximum water solubility of alkanediols, visual observation; format: physicochemical; details: ambient temperature after 24 h storage at 5° C.
Description: The water solubility of a substance is the saturation mass concentration of the substance in water at a given temperature. The determination of the solubility in water relates to essentially pure substances which are stable in water and not volatile. The determination of the water solubility of the alkanediols is further described in the following Example 2.
For the determination of the maximum water solubility of an alkanediol, water and different concentrations of the respective alkanediol were blended by stirring. […] The determination of whether the alkanediol has dissolved in water is based entirely on visual observation.

yeast = test: preservation efficacy test (PET), overview of the effect against yeast; format: cell-based, Candida albicans; details: PET in a shampoo formulation, result in words on Table 8
[2] = PET in shampoo, Staphylococcus aureus (SA)
[3] = PET, Staphylococcus aureus (SA)

Maximum solubility in water [1] [% by weight]	Structure (SMILES)	count at 2 days (Pseudomonas aeruginosa)	count at 7 days (Pseudomonas aeruginosa)	count at 14 days (Pseudomonas aeruginosa)	count at 28 days (Pseudomonas aeruginosa)	count at 7 days (Staphylococcus aureus; 7 days after inoculation)	count at 14 days (Staphylococcus aureus)	count at 28 days (Staphylococcus aureus)	count at 2 days (Escherichia coli; 2 days after inoculation)	count at 7 days (Escherichia coli; 7 days after inoculation)	count at 14 days (Escherichia coli; 14 days after inoculation)	count at 28 days (Escherichia coli; 28 days after inoculation)	count at 2 days (Candida albicans)	count at 7 days (Candida albicans)	count at 14 days (Candida albicans)	count at 28 days (Candida albicans)	count at 2 days (Aspergillus brasiliensis)	count at 7 days (Aspergillus brasiliensis)	count at 14 days (Aspergillus brasiliensis)	count at 28 days (Aspergillus brasiliensis; 28 days after inoculation)	other results
–	CCCCC(O)C(C)O (stereo not shown) [0.4% 2,3-heptanediol]	1	1	1	1	12.000	1	1	320.000	2.400	1	1	640.000	350.000	130.000	11.000	790.000	930.000	500.000	390.000	–
50	CCCC(O)CO (stereo not shown) [Hydrolite ® 5 green]	–	–	–	–	–	–	–	–	–	–	–	–	–	–	–	–	–	–	–	–
–	CC(=O)CCc1ccc(OCCO)cc1 [0.4% Hydroxyethoxyphenyl Butanone]	1	1	1	1	1	1	1	200	1	1	1	95.000	1	490	450	–	–	–	810.000	count at 2 days (Staphylococcus aureus): 39.000
–	CC(=O)CCC(=O)O [0.4% Levulinic Acid]	1	1	1	1	1	1	1	310	1	1	1	240.000	220.000	240.000	38.000	710.000	440.000	390.000	120.000	count at 2 days (Staphylococcus aureus): 45.000
0.3	CCCCCCC(O)C(C)O (stereo not shown) [2,3-nonanediol]	–	–	–	–	–	–	–	–	–	–	–	–	–	–	–	–	–	–	–	number of microorganisms, 14 days (Staphylococcus aureus; [2]): 1; number of microorganisms, 28 days (Staphylococcus aureus; [2]): 1; number of microorganisms, 7 days (Staphylococcus aureus; PET, Staphylococcus aureus (SA), 7 days after inoculation): 66.000; number of microorganisms, 14 days (Staphylococcus aureus; [3]): 1; number of microorganisms, 28 days (Staphylococcus aureus; [3]): 1; number of microorganisms, 2 days (Escherichia coli; PET, Escherichia coli (EC), 2 days after inoculation): 810.000; number of microorganisms, 7 days (Escherichia coli; PET, Escherichia coli (EC), 7 days after inoculation): 27.000; number of microorganisms, 14 days (Escherichia coli; PET, Escherichia coli (EC), 14 days after inoculation): 1.100; number of microorganisms, 28 days (Escherichia coli; PET, Escherichia coli (EC), 28 days after inoculation): 1; number of microorganisms, 28 days (Candida albicans; PET in shampoo): 1; number of microorganisms, 28 days (Candida albicans; PET): 970.000; number of microorganisms, 14 days (Aspergillus brasiliensis; PET in shampoo, Aspergillus brasiliensis (AB), listed as 0,1% 2,3 Nonanediol): 680.000; number of microorganisms, 28 days (Aspergillus brasiliensis; PET in shampoo, Aspergillus brasiliensis (AB), 28 days after inoculation, listed as 0,1% 2,3 Nonanediol): 530.000; number of microorganisms, 14 days (Aspergillus brasiliensis; PET, Aspergillus brasiliensis (AB)): 890.000; antimicrobial efficacy against yeast (yeast): antimicrobial efficacy

Reference: patent publication US20230293407A1, “Compositions Comprising (Bio)-Alkanediols with Antimicrobials for Product Protection” (Symrise AG, priority 2020, published 2023)
